# Reference: patent publication US9084766B2, “Compounds and compositions for targeting cancer stem cells” (Boston Biomedical, Inc., priority 2010, dated 2015)
# Values joined by “and” are separate entries in the source; they are usually repeats but may differ in a detail not shown here. Equal values may be shown once. “Also recorded” adds a separate entry of the source. Read-outs that look alike come from different tables or passages of the source.
# How the values were obtained:
# [1] = Toxicity / body weight in tumor-bearing mice; assay type: in vivo
# Procedure: All regimens were administered daily (qd). Body weights were evaluated periodically during treatment. Each point represents the mean±SEM of eight tumors. […] All regimens were administered daily (qd). Body weights were evaluated periodically during treatment. Each point represents the mean±SEM of eight tumors.
# Daily examinations into the health status of each animal were also conducted. Body weights were checked every three days. Food and water was supplied daily according to the animal husbandry procedures of the facility. Treatment producing>20% lethality and or >20% net body weight loss were considered toxic. Results are expressed as mean tumor volume (mm^3)±SE. P Values<0.05 are considered to be statistically relevant.
# [2] = Pharmacokinetics in mice of particle size formulations; assay type: in vivo; conditions: particle size 125-150 micron versus 2 and 20 micron, 100 mg/kg oral, 20% Gelucire 44/14 and 1% Tween 80
# Procedure: In an experiment, micronized Compound 1 prepared in step 6 of Example 2 with a mean particle size of 2 micron, 20 microns, 150 microns were formulated as suspensions in 20% Gelucire 44/14 and 1% Tween 80 and administered orally to mice at 100 mg/kg. Each time point represents the average of 3 mice (FIG. 16).
# [3] = Phase I clinical trial: plasma pharmacokinetics; assay type: in vivo, human; parameters: AUC0-24 hrs: concentration or dose not given beside the values; conditions: for AUC0-24 hrs: in µM·h
# Procedure: A favorable PK profile with oral bid dosing was also observed. The plasma concentration reached several folds over efficacious concentration (in vitro IC50).
# In yet another suitable dosing regimen, Compound 1 is administered with food which delays the Tmax (Table 13).
# [4] = Compound concentration in patient urine; assay type: in vivo, human
# CD34+ BM Erythroid = experiment: IC50 versus treatment time, CD34+ BM Erythroid; assay type: cell-based; conditions: normal cells CD34+ BM Erythroid, treatment time 12-24 h
# Procedure: (§1) The studies described herein discovered counter-intuitively that cancer cells and cancer stem cells requires much shorter exposure than normal cells to be killed by Compound 1. Normal cells can tolerate up to 24 hours of exposure to Compound 1. Furthermore, the studies here discovered that normal cells can recover after a short period of no-drug exposure, while cancer cells cannot recover once they are exposed to a certain concentration of the Compound 1 for at least 2 hours. Based on these studies, a special pharmacokinetic exposure [termed selective pharmacokinetic profile (SPP), or preferred pharmacokinetic profile (PPP), which is used interchangeably in this publication] was designed for Compound 1 using the data shown below in Table 14 for achieving selective antitumor activity in patients (FIG. 24).
# CD34+ BM Myeloid = experiment: IC50 versus treatment time, CD34+ BM Myeloid; assay type: cell-based; conditions: normal cells CD34+ BM Myeloid, treatment time 12-24 h
# Procedure: as §1
# DU145 = experiment: IC50 versus treatment time, DU145; assay type: cell-based; conditions: DU145 cancer cells
# Procedure: as §1
# [5] = test system: cancer cells or cancer stem cells; experiment: In vitro IC50 on cancer cells or cancer stem cells; assay type: cell-based
# [6] = test system: cancer cells and normal cells; experiment: Exposure time/concentration selectivity, cancer cells versus normal cells; assay type: cell-based
# Procedure: as §1
# Preferably, cancer cells must be exposed to a Compound of the Invention such as Compound 1, particles, polymorphs and/or purified forms thereof for 4 hours at concentration greater than 0.2 μM in order to induce cancer cell death. […] A reduced particle size of Compound 1 achieved this preferred pharmacokinetic pattern and selective activity.
# The selective activity of Compound 1 in killing cancer cells and sparing normal cells is represented by the data in Table 14 and illustrated in FIG. 24.
# [7] = test system: cancer cells and normal cells; conditions: Hirai et al. 1999; Takano et al. 2009; previous studies; cited from earlier work
# [8] = previous studies; cited from earlier work
structure (smiles),measurement,setting,value
"CC(=O)c1cc2c(o1)C(=O)c1ccccc1C2=O [Compound 1, 2-acetyl-4H,9H-naphtho[2,3-b]furan-4,9-dione]",mice died during the treatment,"[1]; about 90% pure, FaDu experiment (upper panel)",4 mice
same,mice died during the treatment,"[1]; about 90% pure, MDA-231 experiment (lower panel)",3 mice
same,toxicity,"[1]; about 90% pure, in GELUCIRE, po qd, FaDu or MDA-231 bearing mice (FIG. 13)",Significant toxicity
same,toxicity,"[1]; composition of particle size less than 5 micron, mice",no observed toxicity
same,tolerability / toxicity,"[1]; higher purity (about 95% or greater), po qd, FaDu or MDA-231 bearing mice (FIG. 14)",well-tolerated and showed no signs of toxicity
same,plasma exposure,[2],lower level of exposure
same,clearance from blood,[3]; 20 mg QD (FIG. 21),rapidly cleared from the blood
same,time plasma concentration sustained at at least 1.5 μM,[3]; 320 mg/day dose level,over 8 hours
same,plasma concentration sustained,"[3]; 320 mg/day dose level, for over 8 hours",at least 1.5 μM
same,Cmax,[3]; Fasting,2550 nM
same,AUC0-24 hrs,[3]; Fasting,20.72
same,pharmacokinetics (linearity),[3]; doses through about 1000 mg/day,apparent linear pharmacokinetics
same,AUC(0-t),"[3]; human, plasma, oral, 80 mg, total daily dose 80 mg, BID dosing, read-out: AUC0-24",7.95 µM·h
same,AUC(0-t),"[3]; human, plasma, oral, 160 mg, total daily dose 160 mg, BID dosing, read-out: AUC0-24",9.52 µM·h
same,AUC(0-t),"[3]; human, plasma, oral, 320 mg, total daily dose 320 mg, BID dosing, read-out: AUC0-24",29.8 µM·h
same,AUC(0-t),"[3]; human, plasma, oral, 400 mg, total daily dose 400 mg, BID dosing, read-out: AUC0-24",53.6 µM·h
same,AUC(0-t),"[3]; human, plasma, oral, 600 mg, total daily dose 600 mg, BID dosing, read-out: AUC0-24",27.3 µM·h
same,AUC(0-t),"[3]; human, plasma, oral, 800 mg, total daily dose 800 mg, BID dosing, read-out: AUC0-24",26.4 µM·h
same,AUC(0-t),"[3]; human, plasma, oral, 1000 mg, total daily dose 1000 mg, BID dosing, read-out: AUC0-24",42.6 µM·h
same,AUC(0-t),"[3]; human, plasma, oral, 1400 mg, total daily dose 1400 mg, BID dosing, read-out: AUC0-24",28.4 µM·h
same,AUC(0-t),"[3]; human, plasma, oral, 2000 mg, total daily dose 2000 mg, BID dosing, read-out: AUC0-24",39.1 µM·h
same,Cmax,"[3]; human, plasma, oral, Fasting",2010 nM
same,AUC(0-t),"[3]; human, plasma, oral, Fasting, read-out: AUC0-24 hrs",20.1 µM·h
same,Tmax,"[3]; human, plasma, oral, patient 20, Fasting",2 h
same,Tmax,"[3]; human, plasma, oral, patient 20, With Food",8 h
same,Tmax,"[3]; human, plasma, oral, patient 20, With Milk",2 h
same,Tmax,"[3]; human, plasma, oral, patient 21, Fasting",6 h
same,Tmax,"[3]; human, plasma, oral, patient 21, With Food",6 h
same,Tmax,"[3]; human, plasma, oral, patient 21, With Milk",6 h
same,Tmax,"[3]; human, plasma, oral, patient 22, Fasting",8 h
same,Tmax,"[3]; human, plasma, oral, patient 22, With Food",10 h
same,Tmax,"[3]; human, plasma, oral, patient 22, With Milk",8 h
same,Tmax,"[3]; human, plasma, oral, patient 24, With Food",10 h
same,Tmax,"[3]; human, plasma, oral, patient 24, With Milk",6.3 h
same,Tmax,"[3]; human, plasma, oral, patient 27, With Food",6 h
same,Tmax,"[3]; human, plasma, oral, patient 27, With Milk",0.5 h
same,Tmax,"[3]; human, plasma, oral, patient 28, With Food",10 h
same,Tmax,"[3]; human, plasma, oral, patient 28, With Milk",6 h
same,Cmax,"[3]; human, plasma, oral, with Milk",3050 nM
same,AUC(0-t),"[3]; human, plasma, oral, with Milk, read-out: AUC0-24 hrs",31.4 µM·h
same,drug accumulation,"[3]; repeated daily dosing every 28 days, doses through about 1000 mg/day",no evidence of drug accumulation
same,Cmax,[3]; with Milk,2890 nM
same,AUC0-24 hrs Fold Change,[3]; with Milk versus Fasting,1.56 and 1.55
same,Cmax Fold Change,[3]; with Milk versus Fasting,1.52 and 1.13
same,AUC0-24 hrs,[3]; with Milk,32.16
same,BBI608 concentration in patient urine,"[4]; patient 7, total daily dose 320 mg, 120-240 min post dose",4.3 µM
same,BBI608 concentration in patient urine,"[4]; patient 7, total daily dose 320 mg, 360-480 min post dose",23.1 µM
same,BBI608 concentration in patient urine,"[4]; patient 8, total daily dose 320 mg, 120-240 min post dose",7.9 µM
same,BBI608 concentration in patient urine,"[4]; patient 8, total daily dose 320 mg, 360-480 min post dose",1.8 µM
same,BBI608 concentration in patient urine,"[4]; patient 9, total daily dose 320 mg, 120-240 min post dose",8.9 µM
same,BBI608 concentration in patient urine,"[4]; patient 9, total daily dose 320 mg, 360-480 min post dose",23.6 µM
same,BBI608 concentration in patient urine,"[4]; patient 10, total daily dose 320 mg, 120-240 min post dose",22.7 µM
same,BBI608 concentration in patient urine,"[4]; patient 10, total daily dose 320 mg, 360-480 min post dose",26.2 µM
same,BBI608 concentration in patient urine,"[4]; patient 11, total daily dose 320 mg, 120-240 min post dose",1.8 µM
same,BBI608 concentration in patient urine,"[4]; patient 11, total daily dose 320 mg, 360-480 min post dose",4.5 µM
same,BBI608 concentration in patient urine,"[4]; patient 12, total daily dose 400 mg, 120-240 min post dose",4.11 µM
same,BBI608 concentration in patient urine,"[4]; patient 12, total daily dose 400 mg, 360-480 min post dose",3.86 µM
same,BBI608 concentration in patient urine,"[4]; patient 14, total daily dose 400 mg, 120-240 min post dose",1.42 µM
same,BBI608 concentration in patient urine,"[4]; patient 14, total daily dose 400 mg, 360-480 min post dose",5 µM
same,BBI608 concentration in patient urine,"[4]; patient 15, total daily dose 600 mg, 120-240 min post dose",3.1 µM
same,BBI608 concentration in patient urine,"[4]; patient 15, total daily dose 600 mg, 360-480 min post dose",10.65 µM
same,BBI608 concentration in patient urine,"[4]; patient 17, total daily dose 600 mg, 120-240 min post dose",1.66 µM
same,BBI608 concentration in patient urine,"[4]; patient 17, total daily dose 600 mg, 360-480 min post dose",45.35 µM
same,BBI608 concentration in patient urine,"[4]; patient 18, total daily dose 600 mg, 120-240 min post dose",2.41 µM
same,BBI608 concentration in patient urine,"[4]; patient 18, total daily dose 600 mg, 360-480 min post dose",6.3 µM
same,BBI608 concentration in patient urine,"[4]; patient 20, total daily dose 800 mg, 120-240 min post dose",6.17 µM
same,BBI608 concentration in patient urine,"[4]; patient 20, total daily dose 800 mg, 360-480 min post dose",118.25 µM
same,BBI608 concentration in patient urine,"[4]; patient 21, total daily dose 800 mg, 120-240 min post dose",0.42 µM
same,BBI608 concentration in patient urine,"[4]; patient 21, total daily dose 800 mg, 360-480 min post dose",7.42 µM
same,BBI608 concentration in patient urine,"[4]; patient 23, total daily dose 800 mg, 120-240 min post dose",2.51 µM
same,BBI608 concentration in patient urine,"[4]; patient 23, total daily dose 800 mg, 360-480 min post dose",11.97 µM
same,IC50,CD34+ BM Erythroid,> 30000 nM
same,IC50,CD34+ BM Myeloid,> 30000 nM
same,IC50,DU145; treatment time 12-24 h,< 200 nM
same,IC50,"DU145; Homo sapiens, DU-145, treatment time 4-12 h",< 200 nM
same,IC50,"[5]; preclinical studies, read-out: IC50 to kill cancer cells or cancer stem cells",100 to 200 nM
same,IC50,[5]; read-out: IC50 of the compound in vitro,30 to 500 nM
same,selectivity,[6]; concentration greater than from about 0.5 to about 3 μM for less than 24 hours,selective activity in killing cancer cells and sparing normal cells
same,selectivity,[6]; concentrations of about or above 0.2 and 30 μM for from about 4 hours up to about 24 hours,selective killing of cancer cells and sparing of normal cells
same,killing of cancer cells,"[6]; concentrations of less than 0.5 μM, regardless of exposure time",no killing of cancer cells
same,selectivity,[6]; continuous exposure for greater than 24 hours,loss of selectivity
same,exposure time tolerated by normal cells,[6]; normal cells,up to 24 hours
same,toxicity to cancer cells and normal cells,[7],equally toxic to normal and cancer cells; also recorded: equally toxic to cancer cells and normal cells
same,antitumor activity in animal model,[8],no antitumor activity was observed
